# Laboratory results from ChEMBL document CHEMBL4480432, “Expansion of a novel lead targeting M. tuberculosis DHFR as antitubercular agents” (Bioorg Med Chem, 2019).
# pIC50: −log10 of the molar value.
# Key:
# [1] = Sub-acute toxicity in albino Wistar rat assessed as change in Urea level at 2.5 mg/kg, po administered for 28 days measured post last dose (reference value: 24.54 +/- 2.12 mg/dl); assay type: organism-based; conditions: in vivo, 672 h
# [2] = Sub-acute toxicity in albino Wistar rat assessed as change in hemoglobin level at 10 mg/kg, po administered for 28 days measured post last dose (reference value: 12.14 +/- 1.45 g%); assay type: organism-based; conditions: in vivo, 672 h
# Dihydrofolate reductase [3] = biological target: T1, Dihydrofolate reductase (Homo sapiens, UniProt P00374); assay: Inhibition of human DHFR assessed as reduction in consumption of NADPH using DHF as substrate preincubated for 1 min followed by DHF addition and measured for 2 mins by spectrophotometric method
# T1 sequence (P00374 whole entry): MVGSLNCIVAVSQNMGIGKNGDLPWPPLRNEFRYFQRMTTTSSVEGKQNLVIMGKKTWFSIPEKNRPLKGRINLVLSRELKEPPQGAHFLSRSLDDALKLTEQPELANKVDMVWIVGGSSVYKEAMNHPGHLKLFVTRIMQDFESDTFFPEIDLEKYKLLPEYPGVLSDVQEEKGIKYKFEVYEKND
# [4] = Sub-acute toxicity in albino Wistar rat assessed as effect on behavioral changes at 1.25 to 10 mg/kg, po administered for 28 days; assay type: organism-based; conditions: in vivo, 672 h
# [5] = Sub-acute toxicity in albino Wistar rat assessed as change in serum protein level at 2.5 mg/kg, po administered for 28 days measured post last dose (reference value: […]); assay type: organism-based; conditions: in vivo, 672 h
# [6] = Sub-acute toxicity in albino Wistar rat assessed as change in MDA level per mg protein at 2.5 mg/kg, po administered for 28 days measured post last dose (reference value: 0.91 +/- 0.1 nmol); assay type: organism-based; conditions: in vivo, 672 h
# [7] = Sub-acute toxicity in albino Wistar rat assessed as change in hemoglobin level at 1.25 mg/kg, po administered for 28 days measured post last dose (reference value: 12.14 +/- 1.45 g%); assay type: organism-based; conditions: in vivo, 672 h
# [8] = Sub-acute toxicity in albino Wistar rat assessed as change in central nervous system at 1.25 to 10 mg/kg, po administered for 28 days; assay type: organism-based; conditions: in vivo, 672 h
# [9] = Sub-acute toxicity in albino Wistar rat assessed as change in MDA level per mg protein at 10 mg/kg, po administered for 28 days measured post last dose (reference value: 0.91 +/- 0.1 nmol); assay type: organism-based; conditions: in vivo, 672 h
# [10] = Sub-acute toxicity in albino Wistar rat assessed as change in ALT level at 5 mg/kg, po administered for 28 days measured post last dose (reference value: 12.19 +/- 1.78 U/L); assay type: organism-based; conditions: in vivo, 672 h
# [11] = Sub-acute toxicity in albino Wistar rat assessed as change in serum protein level at 10 mg/kg, po administered for 28 days measured post last dose (reference value: […]); assay type: organism-based; conditions: in vivo, 672 h
# [12] = Sub-acute toxicity in albino Wistar rat assessed as change in AST level at 2.5 mg/kg, po administered for 28 days measured post last dose (reference value: 22.5 +/- 1.76 U/L); assay type: organism-based; conditions: in vivo, 672 h
# [13] = Sub-acute toxicity in albino Wistar rat assessed as effect on skin at 1.25 to 10 mg/kg, po administered for 28 days; assay type: organism-based; conditions: in vivo, 672 h
# [14] = Sub-acute toxicity in albino Wistar rat assessed as change in Urea level at 10 mg/kg, po administered for 28 days measured post last dose (reference value: 24.54 +/- 2.12 mg/dl); assay type: organism-based; conditions: in vivo, 672 h
# [15] = Sub-acute toxicity in albino Wistar rat assessed as change in MDA level per mg protein at 5 mg/kg, po administered for 28 days measured post last dose (reference value: 0.91 +/- 0.1 nmol); assay type: organism-based; conditions: in vivo, 672 h
# [16] = Sub-acute toxicity in albino Wistar rat assessed as lethargy at 1.25 to 10 mg/kg, po administered for 28 days; assay type: organism-based; conditions: in vivo, 672 h
# [17] = Sub-acute toxicity in albino Wistar rat assessed as change in CAT level per mg protein at 10 mg/kg, po administered for 28 days measured post last dose (reference value: 28.45 +/- 2.1 U); assay type: organism-based; conditions: in vivo, 672 h
# [18] = Sub-acute toxicity in albino Wistar rat assessed as change in AST level at 1.25 mg/kg, po administered for 28 days measured post last dose (reference value: 22.5 +/- 1.76 U/L); assay type: organism-based; conditions: in vivo, 672 h
# Dihydrofolate reductase [19] = biological target: T2, Dihydrofolate reductase (Mycobacterium tuberculosis, UniProt P9WNX1); assay: Inhibition of Mycobacterium tuberculosis H37Rv DHFR expressed in Escherichia coli BL21(DE3) assessed as reduction in consumption of NADPH using DHF as substrate preincubated for 1 min followed by DHF addition and measured for 2 mins by spectrophotometric method
# T2 sequence (P9WNX1 whole entry): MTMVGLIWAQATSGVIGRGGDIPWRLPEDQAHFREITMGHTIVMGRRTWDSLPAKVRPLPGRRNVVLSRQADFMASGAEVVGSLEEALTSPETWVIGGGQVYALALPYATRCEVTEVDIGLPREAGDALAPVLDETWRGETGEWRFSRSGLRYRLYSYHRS
# [20] = Sub-acute toxicity in albino Wistar rat assessed as change in Urea level at 1.25 mg/kg, po administered for 28 days measured post last dose (reference value: 24.54 +/- 2.12 mg/dl); assay type: organism-based; conditions: in vivo, 672 h
# [21] = Sub-acute toxicity in albino Wistar rat assessed as convulsion at 1.25 to 10 mg/kg, po administered for 28 days; assay type: organism-based; conditions: in vivo, 672 h
# [22] = Sub-acute toxicity in albino Wistar rat assessed as change in colour at 1.25 to 10 mg/kg, po administered for 28 days; assay type: organism-based; conditions: in vivo, 672 h
# [23] = Sub-acute toxicity in albino Wistar rat assessed as change in AST level at 5 mg/kg, po administered for 28 days measured post last dose (reference value: 25 +/- 1.76 U/L); assay type: organism-based; conditions: in vivo, 672 h
# [24] = Sub-acute toxicity in albino Wistar rat assessed as effect on sleep at 1.25 to 10 mg/kg, po administered for 28 days; assay type: organism-based; conditions: in vivo, 672 h
smiles,measurement,setting,value
CC(=O)c1c(C)n(Cc2ccccc2)c2ccc(OCc3cn(-c4ccc(Br)cc4)nn3)cc12,Activity,[1],26.54 mg/dL
same,Activity,[2],13.98 g%
same,pIC50,Dihydrofolate reductase [3],3.90
same,Activity,[4],Non-Toxic
same,Activity,[5],7.32 mg/dL
same,Activity,[6],1.05 nmol
same,Activity,[7],12.12 g%
same,Activity,[8],Non-Toxic
same,Activity,[9],1.23 nmol
same,Activity,[10],14.32 U/L
same,Activity,[11],7.76 mg/dL
same,Activity,[12],24 U/L
same,Activity,[13],Non-Toxic
same,Activity,[14],27.54 mg/dL
same,Activity,[15],1.11 nmol
same,Activity,[16],Non-Toxic
same,Activity,[17],32.45 U
same,Activity,[18],23.43 U/L
same,pIC50,Dihydrofolate reductase [19],5.17
same,Activity,[20],25.12 mg/dL
same,Activity,[21],Non-Toxic
same,Activity,[22],Non-Toxic
same,Activity,[23],26.75 U/L
same,Activity,[24],Non-Toxic
